In patent publication US8247211B2, “Glycopeptide antibiotics” (American Cyanamid Company, priority 2001, dated 2012):
≈ marks a conversion by molar mass, not a printed value.

Legend:
Assay in all cases: In vitro antibacterial evaluation: minimum inhibitory concentration (MIC), broth dilution method
Format in all cases: cell-based
Streptococcus sp. = conditions: broth dilution, 5×10^5 CFU/mL, 18 hours at 35° C.
Method: (§1) The minimum inhibitory concentration (MIC), the lowest concentration of the antibiotic which inhibits growth of the test organism, is determined by the broth dilution method using Muller-Hinton II […] (Baltimore Biological Laboratories) following the recommendations of the National Committee for Clinical Laboratory Standards [Methods for dilution antimicrobial susceptibility tests for bacteria that grow aerobically, approved standard M7-A2, National Committee for Clinical Laboratory Standards, Villanova, Pa].
(§2) An inoculum level of 5×10^5 CFU/mL, and a range of antibiotic concentrations (64-0.06 μg/mL) is used. […] The test organisms include a spectrum of Gram-positive bacteria comprised of Staphylococcus sp., Streptococcus sp. and Enterococcus sp. These organisms include recent clinical isolates that are resistant to methicillin, penicillin and/or vancomycin.

Enterococcus sp. = conditions: broth dilution, 5×10^5 CFU/mL, 18 hours at 35° C.
Method: as §1, §2

Escherichia coli = conditions: 5×10^5 CFU/mL, 18 hours at 35° C.
Method: as §1, §2

Staphylococcus sp. = conditions: for MIC Staphylococcus aureus (ATCC 29213): strain ATCC 29213; for MIC Staphylococcus aureus (GC 1131): strain GC 1131; for MIC Staphylococcus aureus (GC 3051): strain GC 3051; for MIC Staphylococcus aureus (GC 3053): strain GC 3053; for MIC Staphylococcus aureus (GC 4541): strain GC 4541; for MIC Staphylococcus aureus (GC 4542): strain GC 4542; for MIC Staphylococcus aureus (GC 4544): strain GC 4544; for MIC Staphylococcus aureus (GC 4545): strain GC 4545
Method: as §1, §2

[1] = broth dilution, 5×10^5 CFU/mL, 18 hours at 35° C.
[2] = broth dilution, 18 hours at 35° C.

## CC(c1ccccc1)C1NC(=O)CNC(=O)C(CO)NC(=O)C(C(O)C2CNC(=N)N2C2OC(CO)C(O)C(O)C2O)NC(=O)C(C(O)C2CNC(=N)N2)NC(=O)C(Cc2ccc(OC3OC(CO)C(OC4OC5COC(c6cccc(O)c6)OC5C(O)C4O)C(O)C3O)cc2)NC1=O (stereo not drawn) [Example 136, Cyclo[glycyl-β-methylphenylalanyl-O-[4-O-[4,6-O-(3-hydroxybenzylidene)hexopyranosyl]-hexopyranosyl]tyrosyl-3-(2-iminoimidazolidin-4-yl)seryl-3-(3-hexopyranosyl-2-iminoimidazoliclin-4-yl)serylseryl]]
Streptococcus sp.
  MIC Streptococcus agalactiae (GC 4564): 8 µg/mL (≈ 5.72 µM)
  MIC Streptococcus pneumoniae (GC 1894): 1 µg/mL (≈ 0.715 µM)
  MIC Streptococcus pneumoniae (GC 4565): 4 µg/mL (≈ 2.86 µM)
  MIC Streptococcus pneumonine (ATCC 6301): 2 µg/mL (≈ 1.43 µM)
  MIC Streptococcus pyogenes (GC 4563): 8 µg/mL (≈ 5.72 µM)
Enterococcus sp.
  MIC Enterococccus avium (GC 4558): 64 µg/mL (≈ 45.7 µM)
  MIC Enterococccus faecalis (ATCC 29212): >64 µg/mL
  MIC Enterococccus faecalis (GC 2691): >64 µg/mL
  MIC Enterococccus faecalis (GC 3059): >64 µg/mL
  MIC Enterococccus faecalis (GC 4552): >64 µg/mL
  MIC Enterococccus faecalis (GC 4553): >64 µg/mL
  MIC Enterococccus faecalis (GC 4554): >64 µg/mL
  MIC Enterococccus faecalis (GC 6189): 64 µg/mL (≈ 45.7 µM)
  MIC Enterococccus faecium (GC 2243): >64 µg/mL
  MIC Enterococccus faecium (GC 4556): 64 µg/mL (≈ 45.7 µM)
  MIC Enterococccus faecium (GC 4557): 8 µg/mL (≈ 5.72 µM)
  MIC Enterococcus faecalis (GC 2242): 64 µg/mL (≈ 45.7 µM)
Escherichia coli
  MIC Escherichia coli (ATCC 25922): >64 µg/mL
  MIC Escherichia coli (GC 4559): >64 µg/mL
  MIC Escherichia coli (GC 4560): 4 µg/mL (≈ 2.86 µM)
Staphylococcus sp.; [1]
  MIC Coagulase Negative Staphylococcus (GC 4547): 8 µg/mL (≈ 5.72 µM)
  MIC Coagulase Negative Staphylococcus (GC 4548): 8 µg/mL (≈ 5.72 µM)
  MIC Coagulase Negative Staphylococcus (GC 4549): 4 µg/mL (≈ 2.86 µM)
  MIC Coagulase Negative Staphylococcus (GC 4551): 32 µg/mL (≈ 22.9 µM)
  MIC Coagulase Negative Staphylococcus (GC 6257): 4 µg/mL (≈ 2.86 µM)
  MIC Staphylococcus aureus-SMITH (GC 4543): 16 µg/mL (≈ 11.4 µM)
  MIC Staphylococcus haemolyticus (GC 4546): 16 µg/mL (≈ 11.4 µM)
Staphylococcus sp.
  MIC Staphylococcus aureus (ATCC 29213): 16 µg/mL (≈ 11.4 µM)
  MIC Staphylococcus aureus (GC 1131): 16 µg/mL (≈ 11.4 µM)
  MIC Staphylococcus aureus (GC 3051): 16 µg/mL (≈ 11.4 µM)
  MIC Staphylococcus aureus (GC 3053): 32 µg/mL (≈ 22.9 µM)
  MIC Staphylococcus aureus (GC 4541): 8 µg/mL (≈ 5.72 µM)
  MIC Staphylococcus aureus (GC 4542): 16 µg/mL (≈ 11.4 µM)
  MIC Staphylococcus aureus (GC 4544): 16 µg/mL (≈ 11.4 µM)
  MIC Staphylococcus aureus (GC 4545): 16 µg/mL (≈ 11.4 µM)
Staphylococcus sp.; [2]
  MIC Staphylococcus aureus (ATCC 29213): 16 µg/mL (≈ 11.4 µM)
  MIC Staphylococcus aureus (GC 1131): 16 µg/mL (≈ 11.4 µM)
  MIC Staphylococcus aureus (GC 3051): 16 µg/mL (≈ 11.4 µM)
  MIC Staphylococcus aureus (GC 3053): 32 µg/mL (≈ 22.9 µM)
  MIC Staphylococcus aureus (GC 4541): 8 µg/mL (≈ 5.72 µM)
  MIC Staphylococcus aureus (GC 4542): 16 µg/mL (≈ 11.4 µM)
  MIC Staphylococcus aureus (GC 4544): 16 µg/mL (≈ 11.4 µM)
  MIC Staphylococcus aureus (GC 4545): 16 µg/mL (≈ 11.4 µM)
Staphylococcus sp.; strain GC 4543, broth dilution, 18 hours at 35° C.
  MIC Staphylococcus aureus-SMITH (GC 4543): 16 µg/mL (≈ 11.4 µM)
Staphylococcus sp.; strain GC 4546, broth dilution, 18 hours at 35° C.
  MIC Staphylococcus haemolyticus (GC 4546): 16 µg/mL (≈ 11.4 µM)
Staphylococcus sp.; strain GC 4547, broth dilution, 18 hours at 35° C.
  MIC Coagulase Negative Staphylococcus (GC 4547): 8 µg/mL (≈ 5.72 µM)
Staphylococcus sp.; strain GC 4548, broth dilution, 18 hours at 35° C.
  MIC Coagulase Negative Staphylococcus (GC 4548): 8 µg/mL (≈ 5.72 µM)
Staphylococcus sp.; strain GC 4549, broth dilution, 18 hours at 35° C.
  MIC Coagulase Negative Staphylococcus (GC 4549): 4 µg/mL (≈ 2.86 µM)
Staphylococcus sp.; strain GC 4551, broth dilution, 18 hours at 35° C.
  MIC Coagulase Negative Staphylococcus (GC 4551): 32 µg/mL (≈ 22.9 µM)
Staphylococcus sp.; strain GC 6257, broth dilution, 18 hours at 35° C.
  MIC Coagulase Negative Staphylococcus (GC 6257): 4 µg/mL (≈ 2.86 µM)
